According to the supplement of paper PMC3974653:
Counter-ions that a name gives are not always drawn.

Test system: MTT (mouse pheochromocytoma)
Experiment: IC50 of cell viability (ATP content)
Conditions: (24 or 48 h)
In short: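 Library compounds were tested at 8 final concentrations (0.5 nM to 46 µM) on MTT mouse pheochromocytoma cells for 24 or 48 hrs, with readout by CellTiter-Glo ATP luminescence. Signals were normalised with positive-control wells at 100% and DMSO wells at 0%. IC50 values were obtained by a four-parameter logistic fit.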

| IC50 of cell viability | SMILES |
| --- | --- |
| > 46 µM | COc1ccc(C[C@@H]2c3cc(OC)c(OC)cc3CC[N@@+]2(C)CCC(=O)OCCCCCOC(=O)CC[N@+]2(C)CCc3cc(OC)c(OC)cc3[C@H]2Cc2ccc(OC)c(OC)c2)cc1OC.O=S(=O)([O-])c1ccccc1.O=S(=O)([O-])c1ccccc1 [Atracurium besylate] |
| > 46 µM | N=C(N/N=C/c1ccc(Cl)cc1)N/N=C/c1ccc(Cl)cc1 [ROBENIDINE HYDROCHLORIDE] |
| > 46 µM | CC(N)C(=O)OC(C)(C)Cc1ccc(Cl)cc1 (stereo not given) [ALAPROCLATE] |
| > 46 µM | CCCOC(=O)c1ccc(N)cc1 [Risocaine] |
| > 46 µM | Oc1nc(O)c2nc(O)[nH]c2n1.[NaH] [URIC ACID] |
| > 46 µM | CC(O)(P(=O)(O)O)P(=O)(O)O [ETIDRONATE DISODIUM] |
| > 46 µM | CCC(C(=O)OCCOCCN(CC)CC)c1ccccc1 (stereo not given) [Butamirate citrate] |
| > 46 µM | O=C([O-])C1=C(CSc2nnnn2CS(=O)(=O)[O-])CS[C@@H]2[C@H](NC(=O)[C@H](O)c3ccccc3)C(=O)N12 [CEFONICID SODIUM] |
| > 46 µM | CC1(C)O[C@@H]2C[C@H]3[C@@H]4CC\C5=C\C(=O)\C=C/[C@]5(C)[C@H]4C(O)C[C@]3(C)[C@@]2(O1)C(=O)CO (stereo not given in full) [DESONIDE] |
| > 46 µM | N=C(N)NC(=N)N1CCOCC1 [Moroxidine hydrochloride] |
| > 46 µM | CNC(=O)OCc1cccc(COC(=O)NC)n1 [PYRIDINOL CARBAMATE] |
| > 46 µM | CC(C)NC[C@@H](O)COc1cccc2ccccc12 [R-(+)-PROPRANOLOL] |
| > 46 µM | C#C[C@]1(OC(C)=O)CC[C@H]2[C@@H]3CCC4=C[C@@H](OC(C)=O)CC[C@@H]4[C@H]3CC[C@@]21C [ETHYNODIOL DIACETATE] |
| > 46 µM | NC/C=C/C(=O)O [(E)-4-amino-2-butenoic acid] |
| > 46 µM | Nc1ccc(O)cc1 [p-Aminophenol] |
| > 46 µM | C[C@@H]1CC2[C@@H]3C[C@H](F)C4=CC(=O)C(Cl)=C[C@]4(C)[C@@]3(F)[C@H](O)C[C@]2(C)[C@@]1(O)C(=O)CO (stereo not given in full) [Halometasona] |
| > 46 µM | Cn1c(=O)c2c(ncn2CCOC(=O)C(C)(C)Oc2ccc(Cl)cc2)n(C)c1=O [Theofibrate] |
| > 46 µM | COC1=NC(=NC(=C1N\C2=N\CCN2)Cl)C [Moxonidine] |
| > 46 µM | O=C(CCCN1CCC(O)(c2ccc(Br)cc2)CC1)c1ccc(F)cc1 [Bromperidol] |
| > 46 µM | OCC1OC(O)C(O)C(O)C1O (stereo not given) [Galactose] |
| > 46 µM | NCc1ccc([S+](N)(=O)[O-])cc1 [Mafenide hydrochloride] |

| SMILES | IC50 of cell viability |
| --- | --- |
| C#C[C@]1(O)CC[C@H]2[C@@H]3CCC4=CC(=O)CCC4(C)[C@H]3CCC21C (stereo not given in full) [ETHISTERONUM] | > 46 µM |
| Oc1cc(Cl)c(Cl)cc1Cl [2,4,5-Trichlorophenol] | > 46 µM |
| CC1OC(C)OC(C)O1 (stereo not given) [PARALDEHYDE] | > 46 µM |
| CC(=O)OC1(c2ccccc2)CCN(CCc2ccccc2)CC1 [1-(2-Phenylethyl)-4-phenyl-4-acetoxypiperidine] | > 46 µM |
| COC1=C2OC3C(O)\C=C/C4[C@H]5CC(=C2[C@@]34CCN5C)C=C1 (stereo not given in full) [Codeine] | > 46 µM |
| COc1cc(C[C@H](C)N)c(OC)cc1Br [(+)-4-Bromo-2,5-dimethoxyamphetamine] | > 46 µM |
| CCOP(=S)(OCC)O/N=C(\C#N)c1ccccc1 [Phoxim] | > 46 µM |
| O=C(O)c1ccccc1O.Oc1cccc2cccnc12 [8-quinolinol and salicylic acid] | > 46 µM |
| C[N+]1(C)C2CCC1CC(OC(=O)c1c[nH]c3ccccc13)C2.[I-] (stereo not given) [3-Tropanylindole-3-carboxylate methiodide] | > 46 µM |
